Test results: patent publication US20030114393A1 (priority 1999, published 2003)
Like-named read-outs stand apart in the source and are kept apart here.

Experiments:
MCF-7-AdrR cells [1] = assay: TMR (tetramethylrosamine chloride) accumulation, in vitro drug uptake model; type: cell-based, human; conditions: for EC50: Homo sapiens, 0.5 h, read-out: concentration half maximally effective on TMR accumulation; for maximal stimulation of TMR accumulation / effect on TMR accumulation: MCF-7-AdrR cells; for maximal stimulation of TMR accumulation: 10 μM TMR, 30 minutes at 37° C., relative to TMR alone; for effect on TMR accumulation: FIG. 1A/1B
Description: The effect of steroidal alkaloids on drug transport was examined by measuring cellular accumulation of TMR, a fluorescent model drug, according to Eytan et al. (Eytan, G. D. et al., Eur. J. Biochem. 248: 104-112, 1997) with some modifications. Cells were seeded in 24-well tissue culture plates at a density of 0.5×10^5 cells/well and were grown for 24 h in growth medium supplemented with 0.5% FCS. TMR (diluted from a 10 mM stock in DMSO) was added to the cells at a final concentration of 10 μM, in 0.5 ml of growth medium in the presence or absence of the tested alkaloids (given prior to the dye as indicated). Cells were incubated with TMR and the tested drug for 30 minutes at 37° C. To terminate the assay, the plates were placed on ice and the cells were washed three times with ice-cold phosphate-buffered saline (PBS) in order to remove residual TMR. The cells were then lysed by incubation with 0.5 ml of 0.5 N NaOH for 20 minutes at room temperature, and the lysates were neutralized with 0.5 ml of 0.5 N HCl and collected. Cell-associated TMR was determined by measuring the fluorescence intensity of the lysates using a fluorescence spectrophotometer (excitation at 555-nm, emission at 575-nm). Blank values obtained at zero time were subtracted from all the fluorescence values and the results were normalized to the amount of cellular protein in each well. Experiments were carried out in triplicates and were repeated at least twice. Results are expressed as a percentage of incubations with TMR alone.
Expression of multidrug transporters markedly decreases drug accumulation in MDR cells. Conversely, in such cells drug accumulation is increased by inhibition of P-gp and related proteins with MDR reversal agents. TMR accumulation was utilized to examine the effect of steroidal alkaloids on P.gp in MCF-7-AdrR adriamycin-resistant human breast adenocarcinoma cells.

MCF-7-AdrR cells [2] = assay: cells; conditions: for reduction of cell viability by adriamycin in the presence of the steroidal alkaloid: 10 μM alkaloid fixed, increasing adriamycin up to 10 μM, compared with drug-free incubations; for EC50: Homo sapiens, read-out: EC50 of sensitization of the cells to adriamycin; for reduction of cell survival by the steroidal alkaloid alone: alkaloid alone (10 μM), MCF-7-AdrR, MTT
Description: Cells were plated in 96-well plates at a density of 4×10^3 cells/well in 0.1 ml drug-free DMEM containing 5% fetal calf serum, and incubated at 37° C. for 48 h. After this time, cytotoxic drugs (adriamycin or vinblastine) were added to the wells at the indicated concentrations, in the absence or presence of the tested steroidal alkaloids, and the cells were further incubated for an additional 48-72 h. The cytotoxic activity of the drugs was then determined using a standard MTT cell survival assay (Hansen, M. B. et al., J. Immunol. Meth 119: 203-210. The […] reagent (diluted from a 5 mg/ml solution in PBS) was added to all the wells at a final concentration of 0.6 mg/ml and the cells were further incubated at 37° C. for 2 or 3 h. The reaction was terminated by adding 100 μl/well of an extraction solution consisting of 20% (w/v) sodium dodecyl sulfate (SDS) in 50% aqueous dimethyl formamide solution, pH 4.8. The plates were left overnight at room temperature in the dark, following which the absorbance was read at 570-nm using an ELISA plate reader. […] Data points represent the mean±S.D. of a quadruplicate determination from a representative experiment that was repeated at least twice. The results are expressed as a percentage of control, drug-free wells.
The cytotoxic effect of the drugs was evaluated by utilizing the MTT cell viability assay, a standard assay for assessing drug resistance and its reversal. Routinely, MCF-7-AdrR cells were exposed to increasing concentrations of drugs for 48 h and the number of viable cells was quantitated after adding the MTT reagent.

[3] = literature (Keeler, 1978; Gaffield and Keeler, 1996); cited from earlier work
[4] = 10 μM tested compound, increasing vinblastine, 48 h, FIG. 5

Compound: CC1=C2C[C@H]3[C@@H](CC=C4C[C@@H](O)CC[C@@]43C)[C@@H]2CC[C@]12O[C@@H]1C[C@H](C)CN[C@H]1[C@H]2C [cyclopamine]
- EC50 (MCF-7-AdrR cells [1]): ~1000 nM
- maximal stimulation of TMR accumulation (MCF-7-AdrR cells [1]): 2 fold
- effect on TMR accumulation (MCF-7-AdrR cells [1]): concentration-dependent increase
- reduction of cell viability by adriamycin in the presence of the steroidal alkaloid (MCF-7-AdrR cells [2]; 48 h): ~90%
- EC50 (MCF-7-AdrR cells [2]; 48 h): 2500 nM
- reduction of cell survival by the steroidal alkaloid alone (MCF-7-AdrR cells [2]; 48 h): 10-20%
- teratogenic activity [3]: potent teratogen

Compound: CC1=C2C(=O)[C@H]3[C@@H](CC=C4C[C@@H](O)CC[C@@]43C)[C@@H]2CC[C@]12O[C@@H]1C[C@H](C)CN[C@H]1[C@H]2C [jervine]
- sensitization to vinblastine: shift of concentration-response curve to the left (MCF-7-AdrR cells [2]; [4]): most effective

Compound: C[C@@H]1CN[C@H]2[C@@H](C)[C@@]3(CC[C@H]4[C@@H]5CC[C@H]6C[C@@H](O)CC[C@]6(C)[C@H]5C(=O)[C@@H]4[C@H]3C)O[C@@H]2C1 [tetrahydrojervine]
- sensitization to vinblastine: shift of concentration-response curve to the left (MCF-7-AdrR cells [2]; [4]): most effective

Compound: C[C@H]1CC[C@]2(NC1)O[C@H]1C[C@H]3[C@@H]4CC[C@H]5C[C@@H](O)CC[C@]5(C)[C@H]4CC[C@]3(C)[C@H]1[C@@H]2C [tomatidine]
- EC50 (MCF-7-AdrR cells [1]): ~1000 nM
- maximal stimulation of TMR accumulation (MCF-7-AdrR cells [1]): 2.5 fold
- effect on TMR accumulation (MCF-7-AdrR cells [1]): concentration-dependent increase
- reduction of cell viability by adriamycin in the presence of the steroidal alkaloid (MCF-7-AdrR cells [2]; 48 h): more than 90%
- EC50 (MCF-7-AdrR cells [2]; 48 h): 5000 nM
- reduction of cell survival by the steroidal alkaloid alone (MCF-7-AdrR cells [2]; 48 h): modest cytotoxic activity of its own
- reduction of cell survival by the steroidal alkaloid alone (MCF-7-AdrR cells [2]; 48 h, listed as Tomatidine): 20-25%
- teratogenic activity [3]: no teratogenic activity

Compound: COc1ccc(CCN(C)CCCC(C#N)(c2ccc(OC)c(OC)c2)C(C)C)cc1OC (stereo not drawn) [verapamil, reference compound]
- effect on TMR accumulation (MCF-7-AdrR cells [1]): back to near normal levels
- effect on drug (adriamycin) sensitivity of MCF-7-AdrR cells (MCF-7-AdrR cells [2]; preliminary experiments, data not shown): markedly increase their drug sensitivity

Compound: Cc1c([C@H](C)[C@@H]2NC[C@@H](C)C[C@H]2O)ccc2c1C[C@H]1[C@H]2CC=C2C[C@@H](O)CC[C@@]21C [veratramine]
- sensitization to vinblastine (MCF-7-AdrR cells [2]; 1 μM veratramine, increasing vinblastine, 48 h, FIG. 5): sensitize

Compound: cyclopamine-4en-3-one [cylopamine4-en-3-one]
- sensitization to vinblastine: shift of concentration-response curve to the left (MCF-7-AdrR cells [2]): most effective
